From patent publication US20240041977A1, “ANNEXIN A1 N-TERMINAL PEPTIDE FORMULATIONS AND METHODS” (ResoTher Pharma A/S, priority 2020, published 2024)
Where “and” joins values, the source holds several entries; their conditions need not be identical. Equal entries are not always repeated. Marks after values point to notes of the source that are not given here. Ends that are not written are not given here.

Assays:
Assay type in all cases: physicochemical
[1] = ThT assay lag-time (fibrillation propensity, physical stability)
Text: ThT is widely used to visualize and quantify the presence of misfolded peptide and protein aggregates called amyloids or fibrils. ThT is a fluorescent molecule that binds to inter molecular beta-sheets in peptides and proteins (here AnxA1). […] A weaker fluorescence intensity is indicative of less amyloids or fibrils present with fewer intermolecular beta-sheets where ThT can bind. Some peptides have a tendency to form fibrils and amyloids and the propensity is dependent on the formulation conditions in an unpredictable manor. Fibrillation is a stochastic process and to avoid long analysis times and both false negatives and positive results, shear stress is introduced to the sample by rigorous rotation in microtiter plates while continuously monitoring the fluorescence emission at approximately 486 nm. An increase in the fluorescence is an indication of the formation of amyloids or fibrils and the time it takes for the fluorescence to start increasing is known as the lag-time. A faster (short) lag-time is an indication of higher propensity for the peptide to degrade by formation of fibrils or amyloids. A ThT fluorescence of 50 AU at t=0 is considered noise or background. Lag time is reported as the time it takes for the signal intensity to exceed 50 AU. All samples for the ThT assay were filtered through cellulose acetate filters ([…], Ø=13 mm, rinsed with MilliQ® water prior to filtration). For each sample, 20 μL ThT of a 1 mM solution was added to 1 mL peptide solution. From this sample mixture, 200 μL was transferred into n wells in a 96 well microtiter plate (n=3-6). 96-well NUNC plates Bottom optics and Sealing tape, Thermo Scientific™ Nunc™ Sealing Tapes, was used. Lag-time is reported as an average of n samples. A fluorescence plate reader (CLARIOstar® Plus, BMG Labtech) was used for the experiments with the following setting: Excitation wavelength 450 nm; Dichroic filter 465 nm; Emission wavelength 486 nm; Focal height 3.5 mm; Gain 1000; […]; […]; Number of flashes per well 20; Temperature 25° C.; Shake mode orbital, Frequency of 300 rpm, 200 s, and shake after each cycle. If possible, the average of all ThT data replicates are used for ThT lag-time determination. In case of very stochastic data, worst-case data is used for lag-time evaluation. ThT lag-time was determined using either a 1-step or 2-step sigmoidal curve.

[2] = Solubility: concentration of AnxA1 in solution/supernatant by UV-VIS
Protocol: The concentration of AnxA1 was determined using UV-VIS spectroscopy using a Nanodrop 2000c from Thermo scientific and an extinction coefficient of A280^0.1%=1.64 ml mg^−1cm^−1.
Three samples of AnxA1 was prepared at pH 9 in Milli Q® water, 0.9% NaCl (154 mM) at concentrations 3.3, 1.6 and 0.8 mg/mL, respectively. pH was adjusted by addition of 0.1 M NaOH to each of the samples and the concentration determined after centrifugation using UV-VIS spectroscopy.
AnxA1 samples are dissolved in Milli Q® water or 5% mannitol in Milli Q® water to approximately 18 mg/mL and pH was adjusted using 1.0 M HCl and NaOH. After dissolution visual appearance was noted and a photograph was taken, see FIG. 6 and Table 4, and a sample was cleared by centrifugation and the concentration determined in the supernatant using UV-VIS spectroscopy.

[3] = Visual appearance of solution
[4] = saline at neutral pH around 7.3

Lag-time ([1]; AnxA1 4.7 mg/mL, sorbitol 5 wt.%, Tris 10 mM, pH 7.5): 10.8 h
Lag-time ([1]; AnxA1 4.7 mg/mL, sucrose 10 wt.%, Tris 10 mM, pH 7.5): 11.1 h
Lag-time ([1]; AnxA1 4.7 mg/mL, sucrose 10 wt.%, glycyl-glycine 30 mM, pH 8.0 (two samples)): >65 h and 50 h
Lag-time ([1]; AnxA1 4.8 mg/mL, mannitol 5 wt.%, histidine 10 mM, pH 6.6): 42.1 h
Lag-time ([1]; AnxA1 4.8 mg/mL, sorbitol 5 wt.%, histidine 10 mM, pH 6.7): 21.3 h
Lag-time ([1]; AnxA1 4.8 mg/mL, sucrose 10 wt.%, glycylglycine 10 mM, pH 7.9, no increase in fluorescence within 65 hours): > 65* hours
Lag-time ([1]; AnxA1 4.8 mg/mL, sucrose 10 wt.%, histidine 10 mM, pH 6.6): 48.8 h
Avg. lag-time ([1]; AnxA1 5.0 mg/mL, 0.9% NaCl in Milli Q water, pH 7.3): 2.7 h
Lag-time ([1]; AnxA1 5 mg/mL, tonicity 80%, mannitol 3.2 wt.%, sucrose 0.8 wt.%, NaHCO3 10 mM, pH 8.41): <60 h
Lag-time ([1]; AnxA1 5 mg/mL, tonicity 80%, mannitol 3.2 wt.%, sucrose 0.8 wt.%, glycylglycine 10 mM, pH 8.40): <60 h
Lag-time ([1]; AnxA1 5 mg/mL, tonicity 100%, mannitol 4.0 wt.%, sucrose 1.0 wt.%, NaHCO3 10 mM, pH 8.40): <60 h
Lag-time ([1]; AnxA1 5 mg/mL, tonicity 100%, mannitol 4.0 wt.%, sucrose 1.0 wt.%, glycylglycine 10 mM, pH 8.39): <60 h
Lag-time ([1]; AnxA1 5 mg/mL, tonicity 120%, mannitol 4.8 wt.%, sucrose 1.2 wt.%, NaHCO3 10 mM, pH 8.40): <60 h
Lag-time ([1]; AnxA1 5 mg/mL, tonicity 120%, mannitol 4.8 wt.%, sucrose 1.2 wt.%, glycylglycine 10 mM, pH 8.41): <60 h
Lag-time ([1]; AnxA1 5 mg/mL, tonicity 200%, mannitol 8.0 wt.%, sucrose 2.0 wt.%, NaHCO3 10 mM, pH 8.44): <60 h
Lag-time ([1]; AnxA1 5 mg/mL, tonicity 200%, mannitol 8.0 wt.%, sucrose 2.0 wt.%, glycylglycine 10 mM, pH 8.40): <60 h
Avg. lag-time ([1]; AnxA1 6.1 mg/mL in Milli-Q water, pH 7.4): 29.6 h
Avg. lag-time ([1]; AnxA1 6.4 mg/mL, 0.9% NaCl in Milli Q water, pH 7.3): 0 h
Avg. lag-time ([1]; AnxA1 7.6 mg/mL, 0.9% NaCl in Milli Q water, pH 7.3): 0 h
Lag-time ([1]; AnxA1 7.7 mg/mL, sucrose 10 wt.%, glycyl-glycine 50 mM, pH 8.5): 29.5 h
Lag-time ([1]; AnxA1 7.8 mg/mL, mannitol 4 wt.%, sucrose 2.5 wt.%, glycyl-glycine 50 mM, pH 8.5): 31.5 h
Lag-time ([1]; AnxA1 7.9 mg/mL, sucrose 10 wt.%, glycyl-glycine 10 mM, pH 7.5): 23.8 h
Avg. lag-time ([1]; AnxA1 8.0 mg/mL in Milli-Q water, pH 7.4): 11.5 h
Lag-time ([1]; AnxA1 8.0 mg/mL, mannitol 4 wt.%, sucrose 2.5 wt.%, glycyl-glycine 10 mM, pH 7.5): 15.1 h
Lag-time ([1]; AnxA1 8.0 mg/mL, mannitol 4 wt.%, sucrose 2.5 wt.%, glycyl-glycine 10 mM, pH 8.3): >65 h
Lag-time ([1]; AnxA1 8.0 mg/mL, mannitol 4 wt.%, sucrose 2.5 wt.%, glycyl-glycine 50 mM, pH 7.6): 3.3 h
Lag-time ([1]; AnxA1 8.0 mg/mL, mannitol 5 wt.%, glycyl-glycine 50 mM, pH 7.5): 3.1 h
Lag-time ([1]; AnxA1 8.0 mg/mL, mannitol 5 wt.%, glycyl-glycine 50 mM, pH 8.5): 41.7 h
Lag-time ([1]; AnxA1 8.1 mg/mL, mannitol 5 wt.%, glycyl-glycine 10 mM, pH 7.4): 13.7 h
Lag-time ([1]; AnxA1 8.1 mg/mL, sucrose 10 wt.%, glycyl-glycine 10 mM, pH 8.2): >65 h
Lag-time ([1]; AnxA1 8.4 mg/mL, mannitol 5 wt.%, glycyl-glycine 10 mM, pH 8.2): 41 h
Avg. lag-time ([1]; AnxA1 20 mg/mL (estimated from amount weighed, gel-like texture), 0.9% NaCl, pH 8.1 (not considered valid)): 0 h
lag-time ([1]; Example 11 composition at pH 7.5): 35 h and 34.7 h
lag-time ([1]; Milli Q water around neutral pH, no addition of salt): > 50 h
fibrillation in ThT assay ([1]; NaHCO3 or glycylglycine buffer at 20% hypotonicity, and at 20% and 100% hypertonicity): No fibrillation was observed
Lag-time ([1]; all samples containing 10 mM glycyl-glycine, pH 8, independent of AnxA1 concentration (1.5-4.8 mg/mL) and isotonicity modifier): > 65 h
fibrillation propensity ([1]; concentrations ≥5 mg/mL, 0.9% NaCl in Milli Q water, around neutral pH, degradation initiated before the analysis is started): very high fibrillation propensity
fibrillation in ThT assay ([1]; positive control sample in 0.9% saline): Fibrillation is observed
fibrillation propensity [1, 4]: very high fibrillation propensity
solubility thermodynamic ([2]; 0.9% NaCl (154 mM) in Milli Q water, saline or isotonic, 20 mg freeze-dried AnxA1 per mL 0.9% NaCl (154 mM) in Milli Q, neutral pH, over night at room temperature on rotation, spun down): ~170 µg/mL
solubility (concentration A280 as a function of pH) ([2]; AnxA1 3.3, 1.6 and 0.8 mg/mL in MiliQ water, 0.9% NaCl (154 mM), below pH 6.0): very low
solubility [2, 4]: poorly soluble
appearance ([3]; 20 mg AnxA1 per mL 0.9% NaCl, neutral pH, after over night at room temperature on rotation): opaque gel like substance
appearance ([3]; AnxA1 3.3, 1.6 and 0.8 mg/mL in Milli Q water, 0.9% NaCl (154 mM), at pH 6.0): opaque
appearance ([3]; AnxA1 3.3, 1.6 and 0.8 mg/mL in Milli Q water, 0.9% NaCl (154 mM), immediately below pH 6.0): precipitated
Substance: AMVSEFLKQAWFIENEEQEYVQTLKSSKGGPGSAVSPYPTFNPSSDV-NH2 [AnxA1]
